Test results taken from US12264128B1, “Acid as an antioxidant compound” (KING FAISAL UNIVERSITY, priority 2023, dated 2025).

Assay: DPPH radical scavenging antioxidant test
Conditions: 517 nm; for Inhibition (radical scavenging inhibition): 0.2 mL DPPH (0.75 mM), compound 3 μM in ethanol, 30 min incubation in the dark
Experimental: The antioxidant properties of the 8-((3,4-dihydroxyphenyl)diazenyl)naphthalene-1,3-disulfonic acid were studied by adding 0.2 mL DPPH (0.75 mM)) to compound 8-((3,4-dihydroxyphenyl)diazenyl)naphthalene-1,3-disulfonic acid (III) (3 μM) in ethanol. After 30 min of incubation in the dark, the absorbance was read against a blank at 517 nm. Ascorbic acid (vitamin C) was used as standard antioxidants (positive control). A blank sample was prepared by 0.2 ml of DPPH in 3 ml ethanol. A negative control sample was run using ethanol instead of the sample. The radical scavenging inhibition was calculated using the following equation: […]
The antioxidant activity for the synthesized compound is listed in Table 1, using Vitamin C as a reference.

SMILES	Inhibition (radical scavenging inhibition)	antioxidant potential compared to vitamin C (in words) (DPPH in vitro test, vitamin C as positive control)
O=S(=O)(O)c1cc(S(=O)(=O)O)c2c(/N=N/c3ccc(O)c(O)c3)cccc2c1 [Product III, 8-((3,4-dihydroxyphenyl)diazenyl)naphthalene-1,3-disulfonic acid]	54%	high potential as an antioxidant compared to vitamin C
O=C1O[C@H]([C@@H](O)CO)C(O)=C1O [vit c, Ascorbic acid, reference compound]	74%	–
